Common to all, as to format: cell-based
The test system of one assay is BG 01. In words: MIC of G418 in liquid medium. The settings on record: industrial strain BG 01. As to the method:
(§1) Bacterial strains used as plasmid hosts included: Escherichia coli DH5: F'lendA1 hsdr17 (rk^−mk^−) supE44 thi-1 recA1 gyrA(Nal^r) relA1 (lacZYA-argF)U169 deoR (80dlac (lacZ)M15) (Sambrook et al., 1989). Yeast were tested in solid medium YPD and eight industrial strains, from laboratory and seven Amazonian strains were sensitive to 200 μg/ml and 500 μg/ml of G418. Afterwards, the minimum concentration of antibiotic that inhibits the growth (MIC) in liquid medium was determined (Table 1).

A further assay relates to CR-01. The assay can be described thus: MIC of G418 in liquid medium. The settings on record: industrial strain CR-01. As to the method:
as §1

The next assay deals with Fermix. The assay can be described thus: MIC of G418 in liquid medium. The settings on record: industrial strain Fermix. As to the method:
as §1

A further assay relates to L101. The assay can be described thus: MIC of G418 in liquid medium. The settings on record: wild-type Amazon strain L101. The protocol: as §1
Another assay has as its system L103. The assay can be described thus: MIC of G418 in liquid medium. The settings on record: wild-type Amazon strain L103. The protocol: as §1
Another assay relates to L105. In words: MIC of G418 in liquid medium. The settings on record: industrial strain L105. As to the method:
as §1

For a further assay, the system named is L106. In words: MIC of G418 in liquid medium. The settings on record: industrial strain L106. As to the method: as §1
The subject of a further assay is L110. The assay can be described thus: MIC of G418 in liquid medium. The settings on record: wild-type Amazon strain L110. As to the method: as §1
A further assay concerns L136. In words: MIC of G418 in liquid medium. The settings on record: wild-type Amazon strain L136. As to the method:
as §1

For another assay, the system named is L151. The assay can be described thus: MIC of G418 in liquid medium. The settings on record: wild-type Amazon strain L151. As to the method: as §1
The subject of another assay is L69. The assay can be described thus: MIC of G418 in liquid medium. The settings on record: wild-type Amazon strain L69. As to the method: as §1
The test system of the next assay is L77. The assay can be described thus: MIC of G418 in liquid medium. The settings on record: wild-type Amazon strain L77. As to the method: as §1
Assay [1] deals with Montrachet de la Champagne. In words: MIC of G418 in liquid medium. The settings on record: industrial strain Montrachet de la Champagne. As to the method:
as §1

In another assay the test system is PE-2. The assay can be described thus: MIC of G418 in liquid medium. The settings on record: industrial strain PE-2. As to the method:
as §1

Another assay deals with S288C. The assay can be described thus: MIC of G418 in liquid medium. The settings on record: Saccharomyces cerevisiae, strain S288C. As to the method: as §1
The test system of a further assay is YPH252. The assay can be described thus: MIC of G418 in liquid medium. The settings on record: Saccharomyces cerevisiae, strain YPH252. The protocol:
as §1

A further assay concerns SA-01. In words: organism not typed.

Each structure is given as a SMILES string. A value given as a limit tells only on which side of the number the result lay.

Usually MIC stands for the least concentration at which growth counts as inhibited. On to `CN[C@@H]1[C@@H](O)[C@@H](O[C@@H]2[C@@H](O)[C@H](O[C@H]3O[C@H]([C@@H](C)O)[C@@H](O)[C@H](O)[C@H]3N)[C@@H](N)C[C@H]2N)OC[C@]1(C)O` [G418, geneticin], for which the MIC is ≤ 50 µg/mL with BG 01; ≤ 50 µg/mL in the assay on CR-01; ≤ 50 µg/mL in the assay with Fermix; 100 µg/mL in the assay on L101; 150 µg/mL with L103; 25 µg/mL with L105. Further, the minimal inhibitory concentration (MIC) in the assay on L106 was found to be 25 µg/mL; in the assay on L110, 150 µg/mL; in the assay on L136 it was 25 µg/mL; in the assay on L151, 12.5 µg/mL; with L69, 100 µg/mL; with L77 it was 25 µg/mL. Besides, the MIC entry in assay [1] is “≦50 μg/ml”; in the assay on PE-2 it was ≤ 50 µg/mL; in the assay with S288C, 100 µg/mL; with YPH252, ≤ 50 µg/mL; with SA-01, ≤ 50 µg/mL.
